Earlier results, collected in paper PMC9851200, “Multiparameter phenotypic screening for endogenous TFEB and TFE3 translocation identifies novel chemical series modulating lysosome function” (Autophagy, 2022).

Tests used:
Parameters in all cases: method as in original PKIS2 published data
[1] = target: kinases (KINOMEscan panel) (Homo sapiens, UniProt O75460); settings: Published KINOMEscan; ref original PKIS2 published data; cited from earlier work
[2] = target: kinases (KINOMEscan panel) (Homo sapiens, UniProt P21127); settings: CDK11B; Published KINOMEscan; ref original PKIS2 published data; cited from earlier work
Chain of kinases (KINOMEscan panel) (Homo sapiens, UniProt P21127) (P21127 whole entry): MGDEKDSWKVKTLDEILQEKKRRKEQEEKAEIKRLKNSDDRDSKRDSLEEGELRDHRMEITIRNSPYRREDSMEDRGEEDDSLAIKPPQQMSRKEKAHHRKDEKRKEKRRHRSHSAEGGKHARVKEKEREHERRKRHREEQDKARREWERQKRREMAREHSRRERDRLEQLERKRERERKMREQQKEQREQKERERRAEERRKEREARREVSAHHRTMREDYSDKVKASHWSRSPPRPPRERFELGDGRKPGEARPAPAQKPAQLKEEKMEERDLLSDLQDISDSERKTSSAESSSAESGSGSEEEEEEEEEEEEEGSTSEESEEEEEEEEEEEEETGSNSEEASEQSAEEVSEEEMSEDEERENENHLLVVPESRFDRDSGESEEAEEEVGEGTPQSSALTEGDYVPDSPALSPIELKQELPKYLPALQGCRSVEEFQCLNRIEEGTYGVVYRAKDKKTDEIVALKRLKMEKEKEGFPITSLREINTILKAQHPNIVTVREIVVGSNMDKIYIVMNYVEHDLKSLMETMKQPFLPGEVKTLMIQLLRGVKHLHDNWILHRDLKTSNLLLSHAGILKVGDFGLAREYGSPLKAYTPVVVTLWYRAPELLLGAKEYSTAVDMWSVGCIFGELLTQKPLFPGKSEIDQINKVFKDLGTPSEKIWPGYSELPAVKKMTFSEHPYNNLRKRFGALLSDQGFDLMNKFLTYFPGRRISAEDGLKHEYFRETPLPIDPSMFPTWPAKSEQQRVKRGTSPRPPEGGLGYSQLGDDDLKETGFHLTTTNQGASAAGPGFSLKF

[3] = target: T1, kinases (KINOMEscan panel) (Homo sapiens, UniProt P54753); settings: kinase EPHB3; Published KINOMEscan; ref original PKIS2 published data; cited from earlier work
T1 sequence (P54753 34-998): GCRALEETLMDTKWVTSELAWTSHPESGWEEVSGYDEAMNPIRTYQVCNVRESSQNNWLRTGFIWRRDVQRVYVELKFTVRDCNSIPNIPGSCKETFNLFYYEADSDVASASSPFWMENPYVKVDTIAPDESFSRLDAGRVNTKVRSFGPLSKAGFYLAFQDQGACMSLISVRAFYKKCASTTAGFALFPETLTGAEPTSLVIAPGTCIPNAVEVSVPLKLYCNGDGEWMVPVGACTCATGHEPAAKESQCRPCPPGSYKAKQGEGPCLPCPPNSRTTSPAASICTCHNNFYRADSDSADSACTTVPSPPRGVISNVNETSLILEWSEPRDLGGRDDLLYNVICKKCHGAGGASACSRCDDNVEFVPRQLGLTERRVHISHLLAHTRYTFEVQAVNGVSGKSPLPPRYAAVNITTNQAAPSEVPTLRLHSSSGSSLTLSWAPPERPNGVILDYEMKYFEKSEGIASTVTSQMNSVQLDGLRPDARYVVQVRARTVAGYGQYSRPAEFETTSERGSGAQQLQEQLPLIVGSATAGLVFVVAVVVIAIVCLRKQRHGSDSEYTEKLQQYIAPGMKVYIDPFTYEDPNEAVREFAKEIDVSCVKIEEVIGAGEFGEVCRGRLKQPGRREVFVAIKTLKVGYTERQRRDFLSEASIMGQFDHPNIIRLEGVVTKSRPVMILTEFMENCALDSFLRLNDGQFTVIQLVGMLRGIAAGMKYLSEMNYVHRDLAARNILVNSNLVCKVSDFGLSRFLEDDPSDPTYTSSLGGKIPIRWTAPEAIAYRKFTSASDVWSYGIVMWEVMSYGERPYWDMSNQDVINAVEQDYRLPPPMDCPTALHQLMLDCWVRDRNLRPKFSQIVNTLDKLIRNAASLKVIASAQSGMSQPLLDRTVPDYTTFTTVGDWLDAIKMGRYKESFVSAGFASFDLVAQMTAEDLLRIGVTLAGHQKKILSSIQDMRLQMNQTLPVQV

[4] = target: T2, kinases (KINOMEscan panel) (Homo sapiens, UniProt Q96D53); settings: kinase COQ8B; Published KINOMEscan; ref original PKIS2 published data; cited from earlier work
T2 sequence (Q96D53 1-544): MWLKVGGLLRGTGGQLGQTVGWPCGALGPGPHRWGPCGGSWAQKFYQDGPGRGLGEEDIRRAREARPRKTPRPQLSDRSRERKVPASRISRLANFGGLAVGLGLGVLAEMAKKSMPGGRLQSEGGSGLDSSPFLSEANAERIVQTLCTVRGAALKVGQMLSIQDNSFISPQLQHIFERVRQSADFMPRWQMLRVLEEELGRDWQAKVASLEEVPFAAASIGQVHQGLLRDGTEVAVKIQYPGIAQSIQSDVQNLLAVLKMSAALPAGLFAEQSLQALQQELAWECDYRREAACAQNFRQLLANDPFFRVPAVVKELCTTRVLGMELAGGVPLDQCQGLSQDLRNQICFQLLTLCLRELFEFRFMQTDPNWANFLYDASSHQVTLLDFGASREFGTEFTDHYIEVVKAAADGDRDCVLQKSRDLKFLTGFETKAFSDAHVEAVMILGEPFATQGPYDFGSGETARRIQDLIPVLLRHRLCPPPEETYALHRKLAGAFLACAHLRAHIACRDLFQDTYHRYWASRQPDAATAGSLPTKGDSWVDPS

[5] = target: T3, kinases (KINOMEscan panel) (Homo sapiens, UniProt Q9C098); settings: kinase DCLK3; Published KINOMEscan; ref original PKIS2 published data; cited from earlier work
T3 sequence (Q9C098 1-648): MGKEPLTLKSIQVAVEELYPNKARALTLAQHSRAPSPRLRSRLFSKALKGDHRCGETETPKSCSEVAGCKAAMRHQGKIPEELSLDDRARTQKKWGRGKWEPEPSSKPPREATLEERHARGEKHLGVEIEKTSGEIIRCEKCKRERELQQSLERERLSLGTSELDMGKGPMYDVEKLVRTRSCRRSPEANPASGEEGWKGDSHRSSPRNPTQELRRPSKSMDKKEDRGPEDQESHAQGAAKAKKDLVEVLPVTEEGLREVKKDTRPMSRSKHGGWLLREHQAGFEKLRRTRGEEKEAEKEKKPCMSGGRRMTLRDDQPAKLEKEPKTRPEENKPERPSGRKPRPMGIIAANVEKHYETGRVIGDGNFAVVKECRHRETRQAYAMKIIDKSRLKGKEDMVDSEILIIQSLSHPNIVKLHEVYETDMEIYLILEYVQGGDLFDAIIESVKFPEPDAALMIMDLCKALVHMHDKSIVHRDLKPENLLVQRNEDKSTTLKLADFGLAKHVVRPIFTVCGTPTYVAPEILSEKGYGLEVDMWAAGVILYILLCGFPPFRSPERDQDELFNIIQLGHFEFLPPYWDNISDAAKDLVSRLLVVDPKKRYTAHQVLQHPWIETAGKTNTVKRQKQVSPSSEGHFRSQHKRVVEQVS

Chain of kinases (KINOMEscan panel) (Homo sapiens, UniProt O75460) (O75460 19-977): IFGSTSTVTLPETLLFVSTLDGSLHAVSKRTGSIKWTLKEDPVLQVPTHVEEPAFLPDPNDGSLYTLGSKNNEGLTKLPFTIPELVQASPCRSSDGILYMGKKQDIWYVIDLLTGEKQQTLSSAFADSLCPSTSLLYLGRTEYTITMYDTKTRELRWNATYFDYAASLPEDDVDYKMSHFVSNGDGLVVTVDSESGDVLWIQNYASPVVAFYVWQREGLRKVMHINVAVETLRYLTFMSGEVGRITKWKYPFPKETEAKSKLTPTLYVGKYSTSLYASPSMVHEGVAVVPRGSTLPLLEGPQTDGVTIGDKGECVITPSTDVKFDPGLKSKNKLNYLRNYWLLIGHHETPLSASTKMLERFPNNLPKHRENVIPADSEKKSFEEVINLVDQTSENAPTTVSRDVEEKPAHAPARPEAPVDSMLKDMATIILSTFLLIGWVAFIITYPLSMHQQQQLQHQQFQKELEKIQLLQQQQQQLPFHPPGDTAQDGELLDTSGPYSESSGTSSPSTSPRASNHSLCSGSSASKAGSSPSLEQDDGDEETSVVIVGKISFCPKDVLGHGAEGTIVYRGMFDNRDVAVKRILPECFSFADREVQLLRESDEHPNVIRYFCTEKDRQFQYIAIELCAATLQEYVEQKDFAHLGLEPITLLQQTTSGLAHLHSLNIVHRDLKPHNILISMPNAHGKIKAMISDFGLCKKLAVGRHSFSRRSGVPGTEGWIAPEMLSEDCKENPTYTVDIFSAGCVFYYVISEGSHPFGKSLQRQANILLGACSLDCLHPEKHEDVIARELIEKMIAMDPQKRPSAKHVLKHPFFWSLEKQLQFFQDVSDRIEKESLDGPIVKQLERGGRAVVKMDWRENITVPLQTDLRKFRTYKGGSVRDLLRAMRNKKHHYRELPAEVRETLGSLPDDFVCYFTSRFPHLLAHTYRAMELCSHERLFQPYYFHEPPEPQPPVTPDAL

Cc1cccc(-c2nc(Nc3ccncc3)c3ccccc3n2)n1 [NK215]
KINOMEscan ERN1 [1]: 0 | KINOMEscan CDK11B [2]: 0 | KINOMEscan EPHB3 [3]: 11 | KINOMEscan COQ8B [4]: 0 | KINOMEscan DCLK3 [5]: 21
